Target: ATX (human His-tagged) (Homo sapiens (Human), UniProt Q13822)
Assay: Human ATX enzyme inhibition assay (fluorescence quenching, MR121 substrate)
Format: biochemical
Conditions: 30 nM ATX, 1 μM MR121 substrate, 30° C., pH 8.0
Method in brief: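 Fluorescence-quenching assay using MR121 substrate at 1 μM final, incubated 15 min at 30 °C. Buffer was 50 mM Tris-HCl pH 8.0 with 140 mM NaCl, 5 mM KCl, 1 mM CaCl2, 1 mM MgCl2 and 0.01% Triton X-100.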

| Structure (SMILES) | IC50 |
| --- | --- |
| CS(=O)(=O)c1ccc(/C=C/C(=O)N2CC[C@@H]3CN(C(=O)c4ccc5[nH]nnc5c4)C[C@@H]3CC2)cc1 [Example 15.68] | 171 nM |
| O=C(/C=C/c1ccc(OC(F)(F)F)cc1)N1C[C@H]2CCN(C(=O)c3ccc4[nH]nnc4c3)CC[C@H]2C1 [Example 15.10] | 34 nM |
| O=C(OCc1cc(Cl)cc(Cl)c1)N1C[C@H]2C[C@@H](Nc3ccc4[nH]c(=O)oc4c3)C[C@H]2C1 [Example 5, (3aR,5r,6aS)-3,5-Dichlorobenzyl 5-(2-oxo-2,3-dihydrobenzo[d]oxazol-6-ylamino)hexahydrocyclopenta[c]pyrrole-2(1H)-carboxylate] | 248 nM |
| O=C(COc1ccccc1C1CCCO1)N1C[C@@H]2CN(C(=O)c3ccc4[nH]nnc4c3)C[C@H]2C1 (stereo partly drawn) [Example 19.14, 1-[(3aS,6aS)-5-(1H-benzotriazole-5-carbonyl)-hexahydro-pyrrolo[3,4-c]pyrrol-2-yl]-2-[2-(tetrahydro-furan-2-yl)-phenoxy]-ethanone] | 273 nM |
| COCCOc1ncc(C(=O)N2C[C@@H]3CN(C(=O)c4ccc5[nH]nnc5c4)C[C@H]3C2)cc1Br [Example 19.40, ((3aS,6aS)-5-(1H-benzo[d][1,2,3]triazole-5-carbonyl)hexahydropyrrolo[3,4-c]pyrrol-2(1H)-yl)(5-bromo-6-(2-methoxyethoxy)pyridin-3-yl)methanone] | 100 nM |
| O=C(CCc1ccc(OC(F)(F)F)cc1)N1C[C@@H]2CN(C(=O)c3ccc4[nH]nnc4c3)C[C@@H]2C1 [Example 15.13] | 114 nM |
| O=C(COc1ccccc1)N1C[C@@H]2CN(C(=O)c3ccc4[nH]nnc4c3)C[C@H]2C1 [Example 15.95] | 1900 nM |
| CC1C(COC(=O)N2C[C@@H]3CN(C(=O)c4ccc5[nH]nnc5c4)C[C@@H]3C2)[C@H]2CC[C@@H]1C2 (stereo partly drawn) [Example 4.31, (3aS,6aR)-5-(1H-benzotriazole-5-carbonyl)-hexahydro-pyrrolo[3,4-c]pyrrole-2-carboxylic acid (1S,4R)-3-methyl-bicyclo[2.2.1]hept-2-ylmethyl ester] | 1820 nM |
| O=C(CCc1cc(Cl)cc(Cl)c1)N1C[C@H]2CN(Cc3ccc4[nH]c(=O)oc4c3)C[C@H]2C1 [Example 6.04] | 282 nM |
| COC(c1cccc(COC(=O)N2C[C@@H]3CN(C(=O)c4ccc5[nH]nnc5c4)C[C@@H]3C2)c1)C(F)(F)F (stereo partly drawn) [Example 4.20, cis-5-(1H-benzotriazole-5-carbonyl)-hexahydro-pyrrolo[3,4-c]pyrrole-2-carboxylic acid 3-(2,2,2-trifluoro-1-methoxy-ethyl)-benzyl ester] | 722 nM |
| N#Cc1ccc(OCC(=O)N2C[C@@H]3CN(C(=O)c4ccc5[nH]nnc5c4)C[C@H]3C2)cc1 [Example 15.94] | 1020 nM |
| O=C(/C=C/c1ccc(OC(F)(F)F)cc1)N1C[C@@H]2CN(C(=O)C3CCc4[nH]nnc4C3)C[C@@H]2C1 (stereo partly drawn) [Example 15.43] | 130 nM |
| N#Cc1cc(F)cc(COC(=O)N2C[C@@H]3CN(C(=O)c4ccc5[nH]nnc5c4)C[C@@H]3C2)c1 [Example 4.29, (3aR,6aS)-3-cyano-5-fluorobenzyl 5-(1H-benzo[d][1,2,3]triazole-5-carbonyl)hexahydropyrrolo[3,4-c]pyrrole-2(1H)-carboxylate] | 643 nM |
| O=C(/C=C/c1ccc(OC(F)(F)F)c(F)c1)N1CC[C@@H]2CN(C(=O)NCc3cnn[nH]3)C[C@@H]2CC1 [Example 9.03] | 42 nM |

The next compounds have a lower IC50 than those just listed; values first:

| IC50 | Structure (SMILES) |
| --- | --- |
| 29 nM | O=C(CCc1ccc(-c2ccccc2)nc1)N1C[C@@H]2CN(C(=O)c3ccc4[nH]nnc4c3)C[C@H]2C1 [Example 15.85] |
| 22 nM | O=C(OCc1ccc(OC(F)(F)F)cc1)N1C[C@@H]2CN(C(=O)c3cc4nn[nH]c4cc3F)C[C@H]2C1 [Example 1.54, (3aS,6aS)-5-(6-fluoro-1H-benzotriazole-5-carbonyl)-hexahydro-pyrrolo[3,4-c]pyrrole-2-carboxylic acid 4-trifluoromethoxy-benzyl ester] |
| 16 nM | O=C(CCc1ccc(OC(F)F)cc1)N1C[C@@H]2CN(C(=O)c3ccc4[nH]nnc4c3)C[C@H]2C1 [Example 17.03, 1-[(3aR,6aR)-5-(1H-benzotriazole-5-carbonyl)-hexahydro-pyrrolo[3,4-c]pyrrol-2-yl]-3-(4-difluoromethoxy-phenyl)-propan-1-one] |
| 16 nM | CS(=O)(=O)c1cc(COC(=O)N2C[C@@H]3CN(C(=O)c4ccc5[nH]nnc5c4)C[C@@H]3C2)cc(C(F)(F)F)c1 [Example 4.07, (3aS,6aR)-5-(1H-benzotriazole-5-carbonyl)-hexahydro-pyrrolo[3,4-c]pyrrole-2-carboxylic acid 3-methanesulfonyl-5-trifluoromethyl-benzyl ester] |
| 16 nM | CC(C)c1ccccc1CCC(=O)N1CC[C@@H]2CN(C(=O)c3ccc4[nH]nnc4c3)C[C@@H]2CC1 [Example 17.08, 1-[(3aS,8aR)-2-(1H-benzotriazole-5-carbonyl)-octahydro-pyrrolo[3,4-d]azepin-6-yl]-3-(2-isopropyl-phenyl)-propan-1-one] |
| 12 nM | O=C(/C=C/c1ccc(OC(F)(F)F)cc1)N1C[C@H]2CCN(C(=O)c3ccc4[nH]nnc4c3)C[C@@H]2C1 [Example 15.74] |
| 12 nM | COc1ccc(/C=C/C(=O)N2CC[C@@H]3CN(C(=O)c4ccc5[nH]nnc5c4)C[C@@H]3CC2)cc1F [Example 1.19, (E)-1-((3aR,8aS)-2-(1H-benzo[d][1,2,3]triazole-5-carbonyl)octahydropyrrolo[3,4-d]azepin-6(7H)-yl)-3-(3-fluoro-4-methoxyphenyl)prop-2-en-1-one] |
| 12 nM | O=C(/C=C/c1ccc(-c2ccccc2)cn1)N1C[C@@H]2CN(C(=O)c3ccc4[nH]nnc4c3)C[C@H]2C1 [Example 15.84, (E)-1-[(3aR,6aR)-5-(1H-benzotriazole-5-carbonyl)-hexahydro-pyrrolo[3,4-c]pyrrol-2-yl]-3-(5-phenyl-pyridin-2-yl)-prop-2-en-1-one] |
| 11 nM | CS(=O)(=O)c1cc(Cl)cc(COC(=O)N2C[C@@H]3CN(C(=O)c4ccc5[nH]nnc5c4)C[C@H]3C2)c1 [Example 4.03, (3aS,6aS)-5-(1H-benzotriazole-5-carbonyl)-hexahydro-pyrrolo[3,4-c]pyrrole-2-carboxylic acid 3-chloro-5-methanesulfonyl-benzyl ester] |
| 10 nM | O=C(CCc1ccc(OC(F)(F)F)c(F)c1)N1C[C@@H]2CN(C(=O)c3ccc4[nH]nnc4c3)C[C@H]2C1 [Example 19.09, 1-[(3aR,6aR)-5-(1H-benzotriazole-5-carbonyl)-hexahydro-pyrrolo[3,4-c]pyrrol-2-yl]-3-(3-fluoro-4-trifluoromethoxy-phenyl)-propan-1-one] |
| 9 nM | O=C(/C=C/c1ccc(C(F)(F)F)cn1)N1C[C@@H]2CN(C(=O)c3ccc4[nH]nnc4c3)C[C@H]2C1 [Example 15.78, (E)-1-[(3aR,6aR)-5-(1H-benzotriazole-5-carbonyl)-hexahydro-pyrrolo[3,4-c]pyrrol-2-yl]-3-(5-trifluoromethyl-pyridin-2-yl)-prop-2-en-1-one] |
| 7 nM | CC(C)c1cc2c(cc1OCC(=O)N1CC[C@@H]3CN(C(=O)c4ccc5[nH]nnc5c4)C[C@@H]3CC1)C(C)(C)CC2 [Example 1.39, 1-((3aR,8aS)-2-(1H-benzo[d][1,2,3]triazole-5-carbonyl)octahydropyrrolo[3,4-d]azepin-6(7H)-yl)-2-(6-isopropyl-3,3-dimethyl-2,3-dihydro-1H-inden-5-yloxy)ethanone] |
| 6 nM | CC(C)c1cc(Cl)ccc1OCC(=O)N1C[C@@H]2CN(C(=O)c3ccc4[nH]nnc4c3)C[C@H]2C1 [Example 19.10, 1-[(3aS,6aS)-5-(1H-benzotriazole-5-carbonyl)-hexahydro-pyrrolo[3,4-c]pyrrol-2-yl]-2-(4-chloro-2-isopropyl-phenoxy)-ethanone] |
| 6 nM | O=C(CCc1ccc(OC(F)(F)F)cc1)N1C[C@@H]2CN(C(=O)c3ccc4[nH]nnc4c3)C[C@H]2C1 [Example 15.44] |
| 6 nM | O=C(/C=C/c1ccc(OC(F)(F)F)cc1)N1CC[C@@H]2CN(C(=O)c3ccc4[nH]c(=O)oc4c3)C[C@@H]2CC1 [Example 2.02, 6-{(3aS,8aR)-6-[(E)-3-(4-trifluoromethoxy-phenyl)-acryloyl]-octahydro-pyrrolo[3,4-d]azepine-2-carbonyl}-3H-benzooxazol-2-one] |
| 6 nM | O=C(OCc1ccc(OCC(F)(F)F)cc1)N1C[C@@H]2CN(C(=O)c3ccc4[nH]nnc4c3)C[C@H]2C1 [Example 4.44, (3aS,6aS)-5-(1H-benzotriazole-5-carbonyl)-hexahydro-pyrrolo[3,4-c]pyrrole-2-carboxylic acid 4-(2,2,2-trifluoro-ethoxy)-benzyl ester] |
| 3 nM | O=C(OCc1ccc(OC(F)(F)F)cc1F)N1C[C@@H]2CN(C(=O)[C@@H]3CCc4[nH]nnc4C3)C[C@H]2C1 [Example 4.48, (3aS,6aS)-5-((R)-4,5,6,7-tetrahydro-1H-benzotriazole-5-carbonyl)-hexahydro-pyrrolo[3,4-c]pyrrole-2-carboxylic acid 2-fluoro-4-trifluoromethoxy-benzyl ester] |
| 2 nM | CCOc1nc(C(=O)N2C[C@@H]3CN(C(=O)[C@@H]4CCc5[nH]nnc5C4)C[C@H]3C2)cc2ccccc12 [Example 19.35, [(3aS,6aS)-5-[(5R)-4,5,6,7-tetrahydro-1H-benzotriazole-5-carbonyl]-1,3,3a,4,6,6a-hexahydropyrrolo[3,4-c]pyrrol-2-yl]-(1-ethoxyisoquinolin-3-yl)methanone] |
| 2 nM | O=C(OCc1ccc(OCC(F)(F)F)c(F)c1)N1CC[C@@H]2CN(C(=O)c3ccc4[nH]nnc4c3)C[C@@H]2CC1 [Example 1.46, (3aS,8aR)-2-(1H-benzotriazole-5-carbonyl)-octahydro-pyrrolo[3,4-d]azepine-6-carboxylic acid 3-fluoro-4-(2,2,2-trifluoro-ethoxy)-benzyl ester] |
